The test system of one experiment is RAD51 D184A, D187A NPFs. Nature of the experiment: SPR of TR2 binding to RAD51 D184A, D187A NPFs. Also noted: species or system human. As to the method: We investigated further the effect of the acidic patch mutations on TR2 binding using surface plasmon resonance (SPR). We developed an SPR assay whereby increasing amounts of TR2 peptide were added to RAD51 NPFs that had been assembled on biotinylated DNA coupled to a streptavidin chip (Supplementary Fig. 3A, Supplementary Table 1). […] We used the same SPR assay to assess the effect of the mutations on the ability of BRC4 to disrupt an established filament (Supplementary Fig. 4A, Supplementary Table 1).
All SPR experiments were performed using a Biacore T200 instrument and an S-series SA (Streptavidin) sensor chip. A single chip was used to immobilise biotinylated single- and double-stranded DNA in buffer: 25 mM HEPES pH 7.4, 100 mM NaCl, 1 mM EDTA. ssDNA and dsDNA were immobilised in different channels to a signal of 120 RU and 250 RU, respectively.
All binding experiments were performed in CMA buffer: 25 mM HEPES pH 7.4, 100 mM NaCl, 2 mM DTT, 2 mM ATP, 5 mM CaCl2, 5 mM MgCl2. 1 μM RAD51 (wild-type, D184A or D184A, D187A mutant proteins) was injected for 120 seconds followed by buffer for 120 seconds at a flow rate of 10 μl/min. TR2 or BRC4 peptides were then injected in a concentration titration series of 0.1, 0.25, 0.5, 0.75, 1, 2, 3, 5, 7.5, 10 and 15 μM for 120 seconds at a flow rate of […] followed by a dissociation time of 240 seconds. After each injection of BRCA2 peptide, the sensor chip was regenerated with buffer comprising of CMA buffer with 1 M NaCl for 120 seconds at a flow rate of 100 μl/min. All experiments were performed in triplicate.
For the BRCA2 TR2 titration series, blank-subtracted sensorgrams were used to extract the maximum response accumulated after each TR2 injection. TR2 response accumulation was corrected to account for differences in RAD51 filament formation between runs, by multiplying the maximum response by a scale factor calculated as the ratio between mean RAD51 filament accumulation on each DNA substrate and the mean RAD51 accumulated for each mutant for each triplicate. The first experiment of the triplicate series for binding of TR2 to the D184A, D187A RAD51 NPF on dsDNA was discounted due to a failed peptide injection.
All graph plotting and statistical analysis was performed using Prism 9.3.1 (GraphPad). […] Data for each mutant on each substrate were fitted with a non-linear one-phase exponential decay.
Supplementary table 1. DNA oligos and peptides
Oligos Size (nt) Sequence (5’ – 3’)
D184A […] (forward),
D184A, D187A […] (forward),
EMSA, SPR, CryoEM (micrographs, […]
Supplementary figs. 3, 4 (ssDNA) 60 Biotin-[…]
Supplementary figs. 3, 4 (dsDNA) 60 Biotin-[…],
Panel A (ssDNA) 32 Cy5-[…]
Panel B (dsDNA) 50 […]-Cy3,
Panel B (ssDNA) 60 Biotin-[…]-
Panel B (dsDNA) 60 Biotin,
Panel C (ssDNA) 32 Biotin-[…]-Biotin […]

The next experiment concerns RAD51 S181C. As to the kind of experiment: RAD51–TR2 disulphide cross-linking, SDS-PAGE. More on the design: species or system human. Conditions: RAD51 S181C 10 μM, 0.5 μM ssDNA, 1.25 μM Cy3-TR2, 2 mM hydrogen peroxide 5 min; pH 7.5; non-reducing SDS-PAGE; repeated three times. An excerpt: To further validate our model of the RAD51–TR2 interaction, we mutated RAD51 S181 to a cysteine to enable disulphide formation with TR2 C3304, which would support its presence at the TR2-RAD51 interface, as identified in the structure.
Fig. 5 Structure-guided BRCA2 TR2 cross-linking to RAD51. A Drawing of the RAD51–TR2 interface, highlighting that amino acids BRCA2 C3304 and RAD51 S181 are spatially close, so that the RAD51 S181C mutant can form a disulphide bridge with C3304 in the TR2 peptide. B SDS-PAGE analysis of cross-linking reactions between RAD51 S181C and TR2 in the presence of hydrogen peroxide. Wild-type RAD51 and the reducing agent DTT were used as controls. Protein bands were visualised with Coomassie Blue. C Same experiment as in B, visualised with 532 nm excitation of the Cy3-labelled TR2 peptide. Experiment was repeated three times. Source data are provided as a Source Data file.
Cross-linking reactions were prepared in buffer: 25 mM HEPES pH 7.5, 150 mM NaCl, 2 mM ATP, 5 mM CaCl2, supplemented with 0.5 μM ssDNA. WT or S181C RAD51 was added to a final concentration of 10 μM and incubated for 15 minutes at room temperature. […] Each crosslinked sample was analysed by SDS-PAGE, using gel-loading dye with DTT (reducing) or without DTT (non-reducing), on a 12% Bis-Tris SDS-PAGE gel. […]

Consider “DDQKNCKKRRALDFLSRLPLPPPVSPICTFVSPAAQKAFQPPRSCGTKY [TR2, BRCA2 TR2 peptide spanning amino acids 3260 to 3308]”, for which, in the experiment on RAD51 D184A, D187A NPFs (D187A compared with single D184A, n = 3), the “TR2 binding by SPR relative to D184A mutant” value is “weaker binding compared with the single D184A mutant”. For the same sequence, the “TR2 binding by SPR relative to wild-type” value in the experiment on RAD51 D184A, D187A NPFs (D187A, Biacore T200, streptavidin chip, biotinylated ss- or dsDNA, CMA buffer pH 7.4, 1 μM RAD51, TR2 0.1-15 μM, 120 s, n = 3 (one dsDNA run discounted, failed injection)) is given as “clear reduction in TR2 binding”. The “residual TR2 binding” value with RAD51 D184A, D187A NPFs (D187A, SPR Fig. 1E, authors' response to reviewers) is “retain a degree of binding”. Further, the “impact of mutation on TR2 binding by SPR, ssDNA versus dsDNA” value in the experiment on RAD51 D184A, D187A NPFs (D187A, ssDNA compared with dsDNA, n = 3) is listed as “stronger for NPFs formed on ssDNA”. Also, in the experiment on RAD51 S181C, the “formation of crosslinked RAD51–TR2 species” value is “readily detect formation of a crosslinked RAD51–TR2 species”.

The values are drawn from publication PMC10622577, “Structural basis for stabilisation of the RAD51 nucleoprotein filament by BRCA2” (Nature Communications, 2023).
